Literature values in US8057823B2, “Lipid nanocapsules, preparation process and use as medicine” (Universite d'Angers, priority 2000, dated 2011).

solubility in water | SMILES
virtually insoluble | CC(=O)[C@H]1CC[C@H]2[C@@H]3CCC4=CC(=O)CC[C@]4(C)[C@H]3CC[C@]12C [progesterone]
virtually insoluble | CS(=O)(=O)OCCCCOS(C)(=O)=O [busulfan]
